Tested on: various types of cells
Experiment: Transfection of various cell strains, GFP expression (Example 8)
Type: cell-based
Conditions: COS7, HeLa-S3, A549, U2OS, SKOV3, Balb3T3, CHO, Jurkat, K562; 48 hours
Protocol: 4 hours after the addition, the medium was replaced (however, the medium was not replaced for Jurkat, K562). […] It should be noted that experimental conditions not described in the table conformed to those of the other examples.

Structure (SMILES): CCCCCCCC/C=C\CCCCCCCCN(CCCCCCCC/C=C\CCCCCCCC)CCC(=O)NCCN(CCC(=O)NCCN)CCC(=O)NCCN (racemic) [DL-G1-U2]
- gene transfer into various types of cells: allowed the gene to be efficiently transferred

Source: US8557875B2, “Gene transfer agent composition containing polyamidoamine dendron” (Public University Corporation Osaka Prefecture University, priority 2009, dated 2013)
